Measurements published in PMC3914206.

Key:
Type in all cases: binding
Conditions in all cases: Compound Concentration 10 µM
panel of 442 kinases [1] = molecular target: T1, panel of 442 kinases (Homo sapiens, UniProt O76039)
T1 construct: purchased KINOMEscan
T1 sequence (O76039 1-960): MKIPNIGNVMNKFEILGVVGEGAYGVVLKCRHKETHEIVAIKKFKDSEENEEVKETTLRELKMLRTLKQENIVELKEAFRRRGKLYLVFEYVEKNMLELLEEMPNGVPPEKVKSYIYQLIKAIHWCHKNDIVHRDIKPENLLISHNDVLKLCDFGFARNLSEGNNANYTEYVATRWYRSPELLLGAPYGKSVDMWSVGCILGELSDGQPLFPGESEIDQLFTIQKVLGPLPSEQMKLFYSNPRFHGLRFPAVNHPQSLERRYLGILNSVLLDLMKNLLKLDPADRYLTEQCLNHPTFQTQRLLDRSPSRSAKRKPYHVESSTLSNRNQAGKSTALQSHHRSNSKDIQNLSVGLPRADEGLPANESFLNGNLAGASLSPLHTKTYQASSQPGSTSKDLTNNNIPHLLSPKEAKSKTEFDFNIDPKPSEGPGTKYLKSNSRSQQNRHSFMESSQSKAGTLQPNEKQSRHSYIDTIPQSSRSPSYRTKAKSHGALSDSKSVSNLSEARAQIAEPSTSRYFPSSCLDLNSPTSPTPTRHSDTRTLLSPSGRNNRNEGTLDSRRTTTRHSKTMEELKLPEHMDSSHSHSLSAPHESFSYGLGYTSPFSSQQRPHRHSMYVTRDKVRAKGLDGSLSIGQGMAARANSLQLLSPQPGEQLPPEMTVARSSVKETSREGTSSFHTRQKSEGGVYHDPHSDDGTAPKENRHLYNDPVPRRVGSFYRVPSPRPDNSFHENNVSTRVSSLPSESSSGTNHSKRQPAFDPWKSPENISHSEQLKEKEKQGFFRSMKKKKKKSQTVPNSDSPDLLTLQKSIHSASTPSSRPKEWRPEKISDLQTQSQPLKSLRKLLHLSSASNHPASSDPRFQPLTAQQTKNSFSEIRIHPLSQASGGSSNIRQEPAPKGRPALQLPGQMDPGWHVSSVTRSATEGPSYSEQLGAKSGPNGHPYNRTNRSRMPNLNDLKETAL
From the text: (§1) We assessed the selectivity of members of this scaffold using the KINOMEscan methodology across a near comprehensive panel of 442 kinases [[18,27]].

panel of 442 kinases [2] = molecular target: T2, panel of 442 kinases (Homo sapiens, UniProt O43353)
T2 construct: purchased KINOMEscan
T2 sequence (O43353 whole entry): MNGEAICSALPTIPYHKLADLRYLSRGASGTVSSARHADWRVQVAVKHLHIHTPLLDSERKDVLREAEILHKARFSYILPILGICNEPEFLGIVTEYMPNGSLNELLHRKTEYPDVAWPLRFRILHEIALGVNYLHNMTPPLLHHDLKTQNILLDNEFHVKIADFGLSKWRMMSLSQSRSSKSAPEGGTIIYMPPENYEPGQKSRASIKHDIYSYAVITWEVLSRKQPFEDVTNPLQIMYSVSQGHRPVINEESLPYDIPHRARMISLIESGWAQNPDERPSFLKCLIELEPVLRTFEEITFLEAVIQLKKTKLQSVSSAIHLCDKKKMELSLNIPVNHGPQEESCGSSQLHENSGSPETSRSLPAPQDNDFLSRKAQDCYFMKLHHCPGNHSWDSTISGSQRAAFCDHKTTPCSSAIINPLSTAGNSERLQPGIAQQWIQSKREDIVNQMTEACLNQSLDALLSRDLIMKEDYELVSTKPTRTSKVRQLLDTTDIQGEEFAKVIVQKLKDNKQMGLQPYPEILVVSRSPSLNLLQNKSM
From the text: as §1

panel of 442 kinases [3] = molecular target: T3, panel of 442 kinases (Homo sapiens, UniProt Q16513)
T3 construct: purchased KINOMEscan
T3 sequence (Q16513 whole entry): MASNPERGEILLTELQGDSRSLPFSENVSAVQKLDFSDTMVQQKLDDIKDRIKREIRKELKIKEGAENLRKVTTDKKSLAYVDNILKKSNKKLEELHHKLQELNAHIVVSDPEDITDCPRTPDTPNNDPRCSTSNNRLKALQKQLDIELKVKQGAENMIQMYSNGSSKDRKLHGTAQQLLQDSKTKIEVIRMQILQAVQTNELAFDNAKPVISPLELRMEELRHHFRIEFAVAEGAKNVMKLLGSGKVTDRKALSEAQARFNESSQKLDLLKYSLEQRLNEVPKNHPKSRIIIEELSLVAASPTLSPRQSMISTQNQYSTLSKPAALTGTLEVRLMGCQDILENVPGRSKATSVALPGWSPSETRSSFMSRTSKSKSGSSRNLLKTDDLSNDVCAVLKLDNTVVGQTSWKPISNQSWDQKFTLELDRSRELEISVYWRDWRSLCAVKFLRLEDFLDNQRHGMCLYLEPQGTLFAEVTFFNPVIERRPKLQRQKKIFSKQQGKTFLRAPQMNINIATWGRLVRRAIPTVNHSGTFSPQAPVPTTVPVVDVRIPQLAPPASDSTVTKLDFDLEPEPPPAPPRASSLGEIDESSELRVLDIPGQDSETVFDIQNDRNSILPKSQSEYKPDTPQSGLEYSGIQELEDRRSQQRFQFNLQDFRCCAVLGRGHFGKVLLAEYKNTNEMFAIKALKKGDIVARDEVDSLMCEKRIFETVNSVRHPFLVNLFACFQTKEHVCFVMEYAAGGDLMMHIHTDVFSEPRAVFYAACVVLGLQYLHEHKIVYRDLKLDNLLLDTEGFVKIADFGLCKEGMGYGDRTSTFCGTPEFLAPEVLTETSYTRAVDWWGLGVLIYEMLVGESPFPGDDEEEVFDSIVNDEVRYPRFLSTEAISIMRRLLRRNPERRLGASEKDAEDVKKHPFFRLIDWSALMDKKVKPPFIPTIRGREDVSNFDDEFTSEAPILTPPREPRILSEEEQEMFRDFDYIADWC
From the text: as §1

SMILES	KINOMEscan: CDKL5 (panel of 442 kinases [1])	KINOMEscan: RIPK2 (panel of 442 kinases [2])	KINOMEscan: PKN2 (panel of 442 kinases [3])
CCOc1cc(C(=O)N2CCC(N3CCN(C)CC3)CC2)ccc1Nc1ncc2c(n1)N(C1CCCC1)c1ccccc1C(=O)N2C [Compound 26]	100	100	100
COc1cc(C(=O)N2CCC(N3CCN(C)CC3)CC2)ccc1Nc1ncc2c(n1)N(C1CCCC1)c1ccccc1C(=O)N2C [Compound 25, 11-cyclopentyl-2-((2-methoxy-4-(4-(4-methylpiperazin-1-yl)piperidine-1-carbonyl)phenyl)amino)-5-methyl-5H-benzo[e]pyrimido[5,4-b][1,4]diazepin-6(11H)-one]	93	87	100
COc1cc(C(=O)N2CCC(N3CCN(C)CC3)CC2)ccc1Nc1ncc2c(n1)N1CCc3cccc(c31)C(=O)N2C [Compound 24]	–	95	82
COc1cc(C(=O)N2CCC(N3CCN(C)CC3)CC2)ccc1Nc1ncc2c(n1)N(C)c1ccccc1C(=O)N2C [15 (LRRK2-IN-1)]	100	100	95
